Results as given in patent publication US20230077362A1 (CORTEVA AGRISCIENCE LLC, priority 2019, published 2023).
Like-named read-outs stand apart in the source and are kept apart here.

Assays:
Assay type in all cases: in vivo
[1] = tested on: Beet Armyworm (Spodoptera exigua) ("BAW"), second instar larvae; assay: Bioassay on beet armyworm (BAW), 128-well diet tray assay; details: for pest or weed control at 50 µg/cm2: Spodoptera exigua; for BAW rating: Table ABC, species BAW, C = not tested, D = no activity noticed
Summary of the method: (§1)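 Each value represents average percent mortality from eight wells. Larvae were kept in clear-covered trays at 25° C. for five to seven days on a 14-hour light, 10-hour dark schedule before scoring.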

[2] = tested on: Cabbage Looper (Trichoplusia ni) ("CL"), second instar larvae; assay: Bioassay on cabbage looper (CL), 128-well diet tray assay; details: for pest or weed control at 50 µg/cm2: Trichoplusia ni; for CL rating: Table ABC, species CL, C = not tested, D = no activity noticed
Summary of the method: as §1

[3] = tested on: Green Peach Aphid ("GPA") (Myzus persicae), wingless adult and nymph stages; assay: Bioassay on green peach aphid (GPA), foliar spray on infested cabbage seedlings; details: for pest or weed control at 200 µg/mL: Myzus persicae, foliar, 72 h
Experimental: Certain molecules disclosed in this document were tested against GPA using procedures described in the following example. In the reporting of the results, the “GPA Rating Table” was used (See Table Section).
Cabbage seedlings grown in 3-inch pots, with 2-3 small (3-5 cm) true leaves, were used as test substrate. The seedlings were infested with 20-50 GPA (wingless adult and nymph stages) one day prior to chemical application. Four pots with individual seedlings were used for each treatment. Test compounds (2 mg) were dissolved in 2 mL of acetone/methanol (1:1) solvent, forming stock solutions of 1000 ppm test compound. […] A hand-held aspirator-type sprayer was used for spraying a solution to both sides of […] leaves until runoff. Reference plants (solvent check) were sprayed with the diluent only containing 20% by volume of acetone/methanol (1:1) solvent. Treated plants were held in a holding room for three days at approximately 25° C. and ambient relative humidity (RH) prior to grading. Evaluation was conducted by counting the number of live aphids per plant under a microscope.
Corrected % Control=100*(X−Y)/X • where • X=No. of live aphids on solvent check plants and • Y=No. of live aphids on treated plants
The results are indicated in the table entitled “Table ABC: Biological Results” (See Table Section).

[4] = read-out: BAW (Biological Results, rating)
[5] = read-out: CL (Biological Results, rating)
[6] = read-out: GPA (Biological Results, rating)

Row | Compound | pest or weed control at 50 µg/cm2 [1, 4] | pest or weed control at 50 µg/cm2 [2, 5] | pest or weed control at 200 µg/mL [3, 6] | other results
1 | COc1ccc(C(C)C)c(N2C(=O)CS/C2=N\C(=O)Nc2ccc(-c3ncn(-c4ccc(C)cc4)n3)cc2F)c1 [Compound J149, (Z)-1-(2-Fluoro-4-(1-(p-tolyl)-1H-1,2,4-triazol-3-yl)phenyl)-3-(3-(2-isopropyl-5-methoxyphenyl)-4-oxothiazolidin-2-ylidene)urea] | 50 to 100% | 50 to 100% | 0 to 80% | 
2 | COc1ccc(C(C)C)c(N2C(=O)CS/C2=N\C(=O)Nc2ccc(-c3ncn(-c4cccc(OC(F)(F)F)c4)n3)cc2)c1 [Compound J328, (Z)-1-(3-(2-Isopropyl-5-methoxyphenyl)-4-oxothiazolidin-2-ylidene)-3-(4-(1-(3-(trifluoromethoxy)phenyl)-1H-1,2,4-triazol-3-yl)phenyl)urea] | 50 to 100% | 50 to 100% | 0 to 80% | 
3 | CC(C)c1ccc(N(C)C)cc1N1C(=O)CS/C1=N\C(=O)Nc1ccc(-c2cn(-c3ccc(S(=O)(=O)C(F)(F)F)cc3)cn2)cc1F [Compound J650, (Z)-1-(3-(5-(Dimethylamino)-2-isopropylphenyl)-4-oxothiazolidin-2-ylidene)-3-(2-fluoro-4-(1-(4-((trifluoromethyl)sulfonyl)phenyl)-1H-imidazol-4-yl)phenyl)urea] |  |  |  | pest or weed control at 50 µg/cm2 ([1]; read-out: BAW rating): 50 to 100%; pest or weed control at 50 µg/cm2 ([2]; read-out: CL rating): 50 to 100%; pest or weed control at 200 µg/mL ([3]; read-out: GPA rating): 0 to 80%
4 | COC(C)c1ccc(C)cc1N1C(=O)CS/C1=N\C(=O)Nc1ccc(-c2ncn(-c3ccc(C#N)cc3)n2)cc1F (stereo not shown) [Compound J291, (Z)-1-(4-(1-(4-Cyanophenyl)-1H-1,2,4-triazol-3-yl)-2-fluorophenyl)-3-(3-(2-(1-methoxyethyl)-5-methylphenyl)-4-oxothiazolidin-2-ylidene)urea] | 50 to 100% | 50 to 100% | 0 to 80% | 
5 | CCOc1ccc(C)cc1N1C(=O)CS/C1=N\C(=O)Nc1ccc(-c2ncn(-c3ccc(SC(F)(F)F)cc3)n2)cc1F [Compound J224, (Z)-1-(3-(2-Ethoxy-5-methylphenyl)-4-oxothiazolidin-2-ylidene)-3-(2-fluoro-4-(1-(4-((trifluoromethyl)thio)phenyl)-1H-1,2,4-triazol-3-yl)phenyl)urea] | 50 to 100% | 50 to 100% | 0 to 80% | 
6 | Cc1ccc(C(C)C)c(N2C(=O)C(Cl)S/C2=N\C(=O)Nc2ccc(-c3ncn(-c4ccc(OC(F)(F)F)cc4)n3)cc2F)c1 (stereo not shown) [Compound J32, (Z)-1-(5-chloro-3-(2-isopropyl-5-methylphenyl)-4-oxothiazolidin-2-ylidene)-3-(2-fluoro-4-(1-(4-(trifluoromethoxy)phenyl)-1H-1,2,4-triazol-3-yl)phenyl)urea] | 50 to 100% | 50 to 100% | 0 to 80% | 
7 | Cc1ccc(C(C)C)c(N2C(=O)C(Cl)S/C2=N\C(=O)Nc2ccc(-c3ncn(-c4ccc(OC(F)(F)F)cc4)n3)cc2)c1 (stereo not shown) [Compound J314, (Z)-1-(5-Chloro-3-(2-isopropyl-5-methylphenyl)-4-oxothiazolidin-2-ylidene)-3-(4-(1-(4-(trifluoromethoxy)phenyl)-1H-1,2,4-triazol-3-yl)phenyl)urea] | 50 to 100% | 50 to 100% | 0 to 80% | 
8 | CCOCc1ccc(C)cc1N1C(=O)CS/C1=N\C(=O)Nc1ccc(-c2cn(-c3ccc(S(=O)(=O)C(F)(F)F)cc3)cn2)cc1F [Compound J646, (Z)-1-(3-(2-(Ethoxymethyl)-5-methylphenyl)-4-oxothiazolidin-2-ylidene)-3-(2-fluoro-4-(1-(4-((trifluoromethyl)sulfonyl)phenyl)-1H-imidazol-4-yl)phenyl)urea] |  |  |  | pest or weed control at 50 µg/cm2 ([1]; read-out: BAW rating): 50 to 100%; pest or weed control at 50 µg/cm2 ([2]; read-out: CL rating): 50 to 100%; pest or weed control at 200 µg/mL ([3]; read-out: GPA rating): 0 to 80%
9 | CC(C)c1ccc(C#N)cc1N1C(=O)CS/C1=N\C(=O)Nc1ccc(-c2ncn(-c3ccc(OC(F)(F)F)cc3)n2)cc1F [Compound J76, (Z)-1-(3-(5-Cyano-2-isopropylphenyl)-4-oxothiazolidin-2-ylidene)-3-(2-fluoro-4-(1-(4-(trifluoromethoxy)phenyl)-1H-1,2,4-triazol-3-yl)phenyl)urea] |  |  | 0 to 80% | 
10 | CCOc1ccc(C(C)C)c(N2C(=O)CS/C2=N\C(=O)Nc2ccc(-c3ncn(-c4ccc(OC(F)(F)F)cc4)n3)cc2F)c1 [Compound J191, (Z)-1-(3-(5-Ethoxy-2-isopropylphenyl)-4-oxothiazolidin-2-ylidene)-3-(2-fluoro-4-(1-(4-(trifluoromethoxy)phenyl)-1H-1,2,4-triazol-3-yl)phenyl)urea] |  |  | 0 to 80% | 
11 | Cc1ccc(-c2ccccc2)c(N2C(=O)CS/C2=N\C(=O)Nc2ccc(-c3ncn(-c4ccc(OC(F)(F)F)cc4)n3)cc2F)c1 [Compound J785, (Z)-1-(2-Fluoro-4-(1-(4-(trifluoromethoxy)phenyl)-1H-1,2,4-triazol-3-yl)phenyl)-3-(3-(4-methyl-[1,1′-biphenyl]-2-yl)-4-oxothiazolidin-2-ylidene)urea] |  |  |  | GPA rating (% control or mortality class) ([3]; Table ABC, species GPA, foliar spray on infested cabbage seedlings): D (No activity noticed in this bioassay)
12 | CCCc1ccc(C)cc1N1C(=O)CS/C1=N\C(=O)Nc1ccc(-c2ncn(-c3ccc(OC(F)(F)F)cc3)n2)cc1F [Compound J41, (Z)-1-(2-Fluoro-4-(1-(4-(trifluoromethoxy)phenyl)-1H-1,2,4-triazol-3-yl)phenyl)-3-(3-(5-methyl-2-propylphenyl)-4-oxothiazolidin-2-ylidene)urea] |  |  | 0 to 80% | 
13 | (Z)-1-(2-Fluoro-4-(1-(4-(trifluoromethoxy)phenyl)-1H-1,2,4-triazol-3-yl)phenyl)-3-(3-(5-methyl-2-((thiophen-3-ylmethoxy)methyl)phenyl)-4-oxothiazolidin-2-ylidene)urea [Compound J623] |  |  |  | BAW rating [1]: A (50-100); CL rating [2]: A (50-100)
14 | Cc1ccc(COCC(F)(F)F)c(N2C(=O)CS/C2=N\C(=O)Nc2ccc(-c3ncn(-c4ccc(C(F)(F)F)nn4)n3)cc2F)c1 [Compound J394] |  |  |  | BAW rating [1]: A (50-100); CL rating [2]: A (50-100)
15 | Cc1ccc(COCC(F)(F)F)c(N2C(=O)CS/C2=N\C(=O)Nc2ccc(-c3ccn(-c4ccc(C(F)(F)F)cn4)n3)cc2C)c1 [Compound J310, (Z)-1-(3-(5-Methyl-2-((2,2,2-trifluoroethoxy)methyl)phenyl)-4-oxothiazolidin-2-ylidene)-3-(2-methyl-4-(1-(5-(trifluoromethyl)pyridin-2-yl)-1H-pyrazol-3-yl)phenyl)urea] | 50 to 100% | 50 to 100% |  | 
16 | Cc1ccc(C(F)(F)F)c(N2C(=O)CS/C2=N\C(=O)Nc2ccc(-c3ncn(-c4ccc(OC(F)(F)F)cn4)n3)cc2F)c1 [Compound J271, (Z)-1-(2-Fluoro-4-(1-(5-(trifluoromethoxy)pyridin-2-yl)-1H-1,2,4-triazol-3-yl)phenyl)-3-(3-(5-methyl-2-(trifluoromethyl)phenyl)-4-oxothiazolidin-2-ylidene)urea] | 50 to 100% | 50 to 100% |  | 
17 | COC(c1ccc(C)cc1N1C(=O)CS/C1=N\C(=O)Nc1ccc(-n2cnc(-c3ccc(OC(F)(F)F)cc3)n2)cc1)C(F)(F)F (stereo not shown) [Compound J405, (Z)-1-(3-(5-Methyl-2-(2,2,2-trifluoro-1-methoxyethyl)phenyl)-4-oxothiazolidin-2-ylidene)-3-(4-(3-(4-(trifluoromethoxy)phenyl)-1H-1,2,4-triazol-1-yl)phenyl)urea] |  |  |  | pest or weed control at 50 µg/cm2 ([1]; read-out: BAW rating): 50 to 100%; pest or weed control at 50 µg/cm2 ([2]; read-out: CL rating): 50 to 100%
18 | Cc1ccc(COCC(F)(F)F)c(N2C(=O)CS/C2=N\C(=O)Nc2ccc(-c3ncn(-c4cccc(C(F)(F)F)c4)n3)cc2F)c1 [Compound J710] |  |  |  | BAW rating [1]: A (50-100); CL rating [2]: A (50-100)
19 | Cc1ccc(COCC(F)(F)F)c(N2C(=O)CS/C2=N\C(=O)Nc2ccc(-c3ncn(-c4ccc(OC(F)(F)C(F)(F)F)cc4)n3)cc2C)c1 [Compound J681] |  |  |  | BAW rating [1]: A (50-100); CL rating [2]: A (50-100)
20 | COc1ccc(C(C)C)c(N2C(=O)CS/C2=N\C(=O)Nc2ccc(-c3ncn(-c4ccc(OC(F)(F)F)cc4)n3)cc2C(C)C)c1 [Compound J100, (Z)-1-(2-Isopropyl-4-(1-(4-(trifluoromethoxy)phenyl)-1H-1,2,4-triazol-3-yl)phenyl)-3-(3-(2-isopropyl-5-methoxyphenyl)-4-oxothiazolidin-2-ylidene)urea] | 50 to 100% | 50 to 100% |  | 
21 | Cc1ccc(C(C)C)c(N2C(=O)CS/C2=N\C(=O)Nc2ccc(-c3ncn(-c4ccc(C(F)(F)F)cn4)n3)cc2C)c1 [Compound J284, (Z)-1-(3-(2-Isopropyl-5-methylphenyl)-4-oxothiazolidin-2-ylidene)-3-(2-methyl-4-(1-(5-(trifluoromethyl)pyridin-2-yl)-1H-1,2,4-triazol-3-yl)phenyl)urea] | 50 to 100% | 50 to 100% |  | 
